Active and inactive are the calls of the source. The rule behind the calls is not given here.
Experiments:
[1] = Half life in beagle dog at 1 mg/kg, iv; assay type: ADME, organism-based, Canis lupus familiaris; design: dose 1 mg/kg, route intravenous; conditions: in vivo
[2] = Oral bioavailability in beagle dog at 10 mg/kg; assay type: ADME, organism-based, Canis lupus familiaris; conditions: in vivo
Rattus norvegicus [3] = test: Antihypertensive activity in telemeterized hypertensive Dahl salt-sensitive rat assessed as duration of mean arterial blood pressure lowering action at 3 mg/kg, po; assay type: functional, Artery
Rattus norvegicus [4] = test: Effect on heart rate in telemeterized hypertensive Dahl salt-sensitive rat at 1 to 100 mg/kg, po
Rattus norvegicus [5] = test: Toxicity in telemeterized hypertensive Dahl salt-sensitive rat assessed as tachyphylaxis at 1 mg/kg, po administered QD for 5 days; assay type: organism-based; design: dose 1 mg/kg, route oral; conditions: in vivo, 120 h
Rattus norvegicus [6] = species: Rattus norvegicus; test: Toxicity in rat assessed as inhibition of bile salt transport; assay type: organism-based; conditions: in vivo
[7] = Tmax in Wistar rat at 10 mg/kg, po; assay type: ADME, organism-based; design: dose 10 mg/kg, route oral; conditions: in vivo
Canis familiaris = species: Canis familiaris; test: Drug metabolism in beagle dog assessed as N-[5-(4-Bromophenyl)-6-[2-[(5-bromo-2-pyrimidinyl)oxy]ethoxy]-4-pyrimidinyl]-sulfamide formation; assay type: ADME, organism-based, Canis lupus familiaris; conditions: in vivo
[8] = AUC (0 to infinity) in Wistar rat at 10 mg/kg, po; assay type: ADME, organism-based; design: time infinity, dose 10 mg/kg, route oral; conditions: plasma
[9] = Tmax in beagle dog at 10 mg/kg, po; assay type: ADME, organism-based, Canis lupus familiaris; design: dose 10 mg/kg, route oral; conditions: in vivo
[10] = Clearance in Wistar rat at 1 mg/kg, iv; assay type: ADME, organism-based; design: dose 1 mg/kg, route intravenous; conditions: in vivo
Rattus norvegicus [11] = test: Antihypertensive activity in telemeterized hypertensive Dahl salt-sensitive rat assessed as reduction in mean arterial blood pressure at 1 mg/kg, po administered QD for 5 days; assay type: functional, Artery
[12] = Volume of distribution at steady state in Wistar rat at 1 mg/kg, iv; assay type: ADME, organism-based; design: dose 1 mg/kg, route intravenous; conditions: in vivo, read-out: Vdss
[13] = AUC (0 to infinity) in beagle dog at 10 mg/kg, po; assay type: ADME, organism-based, Canis lupus familiaris; design: time infinity, dose 10 mg/kg, route oral; conditions: plasma
Rattus norvegicus [14] = test: Antihypertensive activity in telemeterized hypertensive Dahl salt-sensitive rat assessed as reduction in mean arterial blood pressure at 1 mg/kg, po administered QD for 5 days measured 48 hrs post last-dose; conditions: Artery
[15] = Oral bioavailability in Wistar rat at 10 mg/kg; assay type: ADME, organism-based; conditions: in vivo
[16] = AUC (0 to infinity) in Wistar rat at 1 mg/kg, iv; assay type: ADME, organism-based; design: time infinity, dose 1 mg/kg, route intravenous; conditions: plasma
[17] = Cmax in Wistar rat at 10 mg/kg, po; assay type: ADME, organism-based; design: dose 10 mg/kg, route oral; conditions: in vivo
Rattus norvegicus [18] = species: Rattus norvegicus; test: Drug metabolism in Wistar rat assessed as N-[5-(4-Bromophenyl)-6-[2-[(5-bromo-2-pyrimidinyl)oxy]ethoxy]-4-pyrimidinyl]-sulfamide formation; assay type: ADME, organism-based; conditions: in vivo
[19] = Clearance in beagle dog at 1 mg/kg, iv; assay type: ADME, organism-based, Canis lupus familiaris; design: dose 1 mg/kg, route intravenous; conditions: in vivo
Endothelin-1 receptor = target: T1, Endothelin-1 receptor (Homo sapiens, UniProt P25101); test: Displacement of [I125]ET1 from recombinant ETA receptor expressed in CHO cells after 2 hrs by TopCount analysis; assay type: cell-based
T1 sequence (P25101 whole entry): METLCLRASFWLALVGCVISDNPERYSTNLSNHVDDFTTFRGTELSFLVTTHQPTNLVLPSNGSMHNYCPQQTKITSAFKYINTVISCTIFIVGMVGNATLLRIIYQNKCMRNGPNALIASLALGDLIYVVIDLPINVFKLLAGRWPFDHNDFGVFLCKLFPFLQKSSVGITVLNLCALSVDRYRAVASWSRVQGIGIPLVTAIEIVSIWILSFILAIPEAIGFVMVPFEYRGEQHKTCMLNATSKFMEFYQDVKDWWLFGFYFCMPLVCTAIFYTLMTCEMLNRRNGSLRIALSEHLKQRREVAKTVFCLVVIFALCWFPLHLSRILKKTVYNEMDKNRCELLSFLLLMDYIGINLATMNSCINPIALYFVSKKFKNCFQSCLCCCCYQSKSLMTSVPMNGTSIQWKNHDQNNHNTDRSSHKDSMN

[20] = AUC (0 to infinity) in beagle dog at 1 mg/kg, iv; assay type: ADME, organism-based, Canis lupus familiaris; design: dose 1 mg/kg, route intravenous, time infinity; conditions: plasma
[21] = Half life in Wistar rat at 1 mg/kg, iv; assay type: ADME, organism-based; design: dose 1 mg/kg, route intravenous; conditions: in vivo
[22] = Cmax in beagle dog at 10 mg/kg, po; assay type: ADME, organism-based, Canis lupus familiaris; design: dose 10 mg/kg, route oral; conditions: in vivo
[23] = Volume of distribution at steady state in beagle dog at 1 mg/kg, iv; assay type: ADME, organism-based, Canis lupus familiaris; design: dose 1 mg/kg, route intravenous; conditions: in vivo, read-out: Vdss
Rattus norvegicus [24] = test: Antihypertensive activity in telemeterized hypertensive Dahl salt-sensitive rat assessed as reduction in mean arterial blood pressure at 3 mg/kg, po measured over 6 hrs; assay type: functional, Artery
Rattus norvegicus [25] = test: Antihypertensive activity in po dosed telemeterized hypertensive Dahl salt-sensitive rat assessed as reduction in mean arterial blood pressure; conditions: Artery
Rattus norvegicus [26] = test: Antihypertensive activity in telemeterized hypertensive Dahl salt-sensitive rat assessed as duration of mean arterial blood pressure lowering action at 100 mg/kg, po; assay type: functional, Artery
Rattus norvegicus [27] = test: Antihypertensive activity in telemeterized hypertensive Dahl salt-sensitive rat assessed as reduction in mean arterial blood pressure at 100 mg/kg, po measured over 6 hrs; assay type: functional, Artery
Rattus norvegicus [28] = test: Effect on heart rate in telemeterized hypertensive Dahl salt-sensitive rat at 3 mg/kg, po

## CCCNS(=O)(=O)Nc1ncnc(OCCOc2ncc(Br)cn2)c1-c1ccc(Br)cc1
[1]
  half-life: 246 min
[2]
  bioavailability: 87%
Rattus norvegicus [3]
  Time: 60 h
Rattus norvegicus [4]
  Activity: inactive
Rattus norvegicus [5]
  Activity: Non-toxic
Rattus norvegicus [6]
  Activity: Non-toxic
[7]
  Tmax: 6 h
Canis familiaris
  Drug metabolism: Active
[8]
  AUC(0-inf): 18500 ng·h/mL
[9]
  Tmax: 2 h
[10]
  clearance: 6.7 mL/min/kg
Rattus norvegicus [11]
  MPE: 20 mmHg
[12]
  Vd: 1.8 L/kg
[13]
  AUC(0-inf): 27500 ng·h/mL
Rattus norvegicus [14]
  Activity: Active
[15]
  bioavailability: 69%
[16]
  AUC(0-inf): 2680 ng·h/mL
[17]
  Cmax: 1670 ng/mL
Rattus norvegicus [18]
  Drug metabolism: Active
[19]
  clearance: 5.4 mL/min/kg
Endothelin-1 receptor
  IC50: 0.5 nM
[20]
  AUC(0-inf): 3170 ng·h/mL
[21]
  half-life: 306 min
[22]
  Cmax: 4590 ng/mL
[23]
  Vd: 0.9 L/kg
Rattus norvegicus [24]
  Fall in mean arterial blood pressure: 25 mmHg
Rattus norvegicus [25]
  Activity: Dose-dependent effect

## COc1ccccc1Oc1c(NS(=O)(=O)c2ccc(C(C)(C)C)cc2)nc(-c2ncccn2)nc1OCCO [BOSENTAN]
Rattus norvegicus [26]
  Time: 72 h
Rattus norvegicus [27]
  MPE: 30 mmHg
Rattus norvegicus [3]
  Time: 15 h
Rattus norvegicus [28]
  Activity: inactive
Rattus norvegicus [24]
  Fall in mean arterial blood pressure: 7 mmHg
